{"source": "patent US20070099881A1", "about": "“Method of treating wounds by enhancing expression of procollagen” (priority 2001, published 2007)", "key": {"[1]": {"test_system": "type III procollagen mRNA", "test": "Northern blot of type III procollagen mRNA in HF 250 fibroblasts grown on collagen or plastic", "format": "cell-based, human", "settings": "3 μg/ml, 24 hours, vs 10% dimethyl sulfoxide alone; for increase of type III procollagen mRNA expression (ratio to GAPDH mRNA density) relative to control: fibroblasts grown on collagen; for expression of type III procollagen mRNA relative to control: fibroblasts grown on plastic", "procedure": "(§1) A primary cell line of normal human dermal fibroblasts (HF 250) was derived from the outgrowth of cells from explants of discarded foreskin. Fibroblasts were maintained in Dulbecco's modification of Eagles medium (DMEM) supplemented with 10% fetal bovine serum (FBS). Cells were grown to confluence and passed 1:1 by trypsinization. HF 250 cells were used between their 5th and 7th passages.\n(§2) Acid-soluble collagen was isolated from rat tail tendons by acetic acid extraction. Briefly, rat tail tendons were teased from adult rat tails and stirred in ice cold 0.5 M acetic acid for 2 days. The solubilized collagen was cleared by centrifugation and the supernatant made 10% in respect to NaCl w/v. The precipitated collagen was collected by centrifugation, resuspended in 1 mM HCl, dialyzed exhaustively against 1 mM HCl, frozen, lyophilized, weighed, resuspended in sterile ice cold 1 mM HCl at 5 mg/ml and stored at 4° C. until needed. The bottoms of 10 cm Petri dishes were covered with cold, sterile collagen solution. Any free collagen solution was removed with a Pasteur pipette and the coated dishes placed in a 37° C. incubator, where they were incubated overnight to allow complete polymerization of the collagen-coated surface.\n(§3) To optimize collagen synthesis and processing by cultured fibroblasts, the culture medium was supplemented with 50 μg/ml of vitamin C as L-ascorbic acid 2-phosphate sesquimagnesium salt (Sigma Chemical Co., St. Louis, Mo.). Oxandrolone was the anabolic steroid tested, and it was supplied by Bio-Technology General Corp., Iselin, N.J. A stock solution of oxandrolone was made in a 10% dimethyl-sulfoxide solution.\n(§4) Equal numbers of fibroblasts were plated onto tissue culture plastic dishes or collagen-coated Petri dishes. Four confluent 10 cm dishes of HF 250 cells were split in half and the cells replated in four 10 cm collagen-coated and four uncoated dishes. Two collagen-coated dishes and two uncoated dishes received 3 μg/ml of oxandrolone. The two remaining collagen-coated and uncoated dishes received an equal volume of 10% dimethyl-sulfoxide alone. After 24 hours of incubation, the medium was removed and the dishes rinsed with phosphate buffered saline. Northern blot analysis was used to determine the levels of both type I and type III procollagen mRNA expression. Total RNA was extracted from culture cells, using the Total RNA Isolation kit (Ambion, Inc; Austin, Tex.) following the supplier's instructions. […]\n(§5) Total extracted RNA was subjected to agarose gel electrophoresis and blotted on a nylon membrane. […] The x-ray film was developed and quantitative analysis done by densitometry. […] The quantities of type I and type III procollagen α1 mRNAs and GAPDH mRNA were determined by densitometry. […]"}, "[2]": {"test_system": "normal human dermal fibroblasts (HF 250)", "test": "Pilot study: collagen produced by fibroblast cultures, pepsin extraction and SDS-PAGE of collagen α chains", "format": "cell-based", "settings": "0, 1, 3, 10 or 30 μg/ml tested, 24 hours, ascorbate 50 μg/ml, Coomassie-stained SDS-PAGE; data not shown", "procedure": "as §1, §3\nAn initial pilot study was conducted to determine the concentration of anabolic steroid that would maximize collagen synthesis, as follows. After fibroblast cultures became confluent in 2 days, the culture medium was replaced with a medium supplemented with ascorbate at 50 μg/ml. To each dish, a different concentration of oxandrolone was added (0, 1, 3, 10 or 30 μg/ml). Dishes were incubated for 24 hours in a water saturated atmosphere at 37° in 95% air, 5% CO2. […]"}, "HF 250 cells": {"test_system": "HF 250 cells", "test": "Cell number and morphology of fibroblasts grown on collagen or plastic", "format": "cell-based, human", "settings": "3 μg/ml, 24 hours", "procedure": "Equal numbers of fibroblasts were plated onto tissue culture plastic dishes or collagen-coated Petri dishes. Four confluent 10 cm dishes of HF 250 cells were split in half and the cells replated in four 10 cm collagen-coated and four uncoated dishes. Two collagen-coated dishes and two uncoated dishes received 3 μg/ml of oxandrolone. The two remaining collagen-coated and uncoated dishes received an equal volume of 10% dimethyl-sulfoxide alone. After 24 hours of incubation, the medium was removed and the dishes rinsed with phosphate buffered saline. Northern blot analysis was used to determine the levels of both type I and type III procollagen mRNA expression. Total RNA was extracted from culture cells, using the Total RNA Isolation kit (Ambion, Inc; Austin, Tex.) following the supplier's instructions. Type I and type III procollagen cDNAs were purchased from American Type Culture Collection (Manassas, Va.). The human α1 (I) (HF677) and α1 (III) (HF934) procollagen cDNAs were enzymatically cleaved, purified, and subsequently end-labeled with ^32P dCTP (New England Nuclear, Boston, Mass.) to generate specific cDNA probes.\nBy 24 hours, the density of cells on the plastic surface appeared greater than the density of cells grown on collagen. […] See, e.g., Greco and Ehrlich (1992)."}, "type I procollagen mRNA": {"test_system": "type I procollagen mRNA", "test": "Northern blot of type I procollagen mRNA in HF 250 fibroblasts grown on collagen or plastic", "format": "cell-based, human", "settings": "3 μg/ml, 24 hours, vs 10% dimethyl sulfoxide alone; for expression of type I procollagen mRNA (ratio to GAPDH mRNA density) relative to control: fibroblasts grown on collagen; for expression of type I procollagen mRNA relative to control: fibroblasts grown on plastic", "procedure": "as §1, §2, §3, §4, §5"}}, "note": "“Also recorded” adds a separate entry of the source."}
{"smiles": "C[C@]12COC(=O)C[C@@H]1CC[C@@H]1[C@@H]2CC[C@@]2(C)[C@H]1CC[C@]2(C)O", "note": "[Oxandrolone, 17-methyl-17-hydroxy-2-oxa-5-androstan-3-one]", "values": [{"measurement": "increase of type III procollagen mRNA expression (ratio to GAPDH mRNA density) relative to control", "setting": "[1]", "value": "enhanced"}, {"measurement": "increase of type III procollagen mRNA expression (ratio to GAPDH mRNA density) relative to control", "setting": "[1]; listed as oxandrolone", "value": 11, "unit": "fold"}, {"measurement": "expression of type III procollagen mRNA relative to control", "setting": "[1]", "value": "enhanced"}, {"measurement": "expression of type III procollagen mRNA relative to control", "setting": "[1]; listed as oxandrolone", "value": "minimal change; also recorded: minimal effect"}, {"measurement": "concentration giving the maximal intensity of collagen α chain staining", "setting": "[2]", "value": 3, "unit": "µg/mL"}, {"measurement": "cell morphology", "setting": "HF 250 cells", "value": "no obvious difference"}, {"measurement": "number of fibroblasts", "setting": "HF 250 cells", "value": "did not affect"}, {"measurement": "expression of type I procollagen mRNA (ratio to GAPDH mRNA density) relative to control", "setting": "type I procollagen mRNA", "value": "doubled; also recorded: increased"}, {"measurement": "expression of type I procollagen mRNA (ratio to GAPDH mRNA density) relative to control", "setting": "type I procollagen mRNA; listed as oxandrolone", "value": "doubles"}, {"measurement": "expression of type I procollagen mRNA relative to control", "setting": "type I procollagen mRNA", "value": "did not noticeably change; also recorded: minimal effect"}, {"measurement": "expression of type I procollagen mRNA relative to control", "setting": "type I procollagen mRNA; listed as oxandrolone", "value": "minimal change"}]}
